pIC50: −log10 of the molar value.
How the values were obtained:
[1] = mean pharmacokinetic parameters of taurinamide and taurultam (FIGS. 10, 11); conditions: in vivo; mean pharmacokinetic parameter, weight-based AUC
Description: FIG. 10 is a chart showing the mean pharmacokinetic parameters of taurinamide; and
FIG. 11 is a chart showing the mean pharmacokinetic parameters of taurultam.
The taurinamide is given with a dosage range of from 5 mg/kg to 280 mg/kg, with optimal range between 5 mg/kg and 60 mg/kg, from once daily through weekly, for an effective period of time based on individual patient response.
The taurultam is given with a dosage range of from 5 mg/kg to 280 mg/kg, with optimal range between 5 mg/kg and 60 mg/kg, from once daily through weekly, for an effective period of time based on individual patient response.

IMR5 tumors = assay: IMR5 neuroblastoma tumors implanted subcutaneously in mice (FIGS. 3-6); assay type: in vivo; conditions: IMR5 tumors implanted subcutaneously in CB57 SCID mice
From the text: The efficacy observed with taurolidine treatment of IMR5 cell implants in vivo (FIGS. 3-6), despite IRM5's relatively high IC50 in vitro (FIG. 2), supports the conclusion that the hydrolysis products of taurolidine may have independent anti-neoplastic activity. […] Since it is known that taurolidine metabolizes to taurolidine hydrolysis products in vivo, this would support the conclusion that the hydrolysis products of taurolidine may have significant anti-neoplastic activity against neuroblastoma cells. In fact, it may be that the hydrolysis products of taurolidine have higher efficacy against neuroblastoma cells than taurolidine which has not been hydrolyzed.

SK-N-AS tumors = assay: SK-N-AS neuroblastoma tumors implanted subcutaneously in mice (FIGS. 3-8); assay type: in vivo, CB57 SCID mice
neuroblastoma cell lines = assay: in vitro cell viability of neuroblastoma cell lines (FIG. 2); assay type: cell-based
From the text: (§1) The IC50 values are between 80-140 microMolar for neuroblastoma cell lines, and 200 microMolar for normal fibroblasts (see FIG. 2).

healthy fibroblasts (BJ) = assay: in vitro cell viability of healthy fibroblasts (FIG. 2); assay type: cell-based; conditions: Fibroblast, normal fibroblasts
From the text: as §1

[2] = 5 grams intravenously by 20 minute infusion; cited from earlier work
leukemia cell lines = assay: in vitro sensitivity of leukemia cell lines compared to healthy lymphocytes (FIG. 1); assay type: cell-based; conditions: leukemia cell lines vs healthy lymphocytes

| Structure (SMILES) | AUC(0-inf) [1] | efficacy in tumors in vivo (IMR5 tumors) | efficacy in tumors in vivo (SK-N-AS tumors; SK-N-AS tumors implanted subcutaneously in CB57 SCID mice) | overall survival (SK-N-AS tumors; mice implanted with SK-N-AS tumor, vs control) | tumor size (SK-N-AS tumors; mice with SK-N-AS cell line tumors, vs control) | sensitivity to decrease in viability compared to healthy fibroblasts (neuroblastoma cell lines; neuroblastoma cell lines vs healthy fibroblasts (BJ), in vitro) | pIC50 (neuroblastoma cell lines; neuroblastoma cell lines, cell viability in vitro, FIG. 2) | concentration at which in vitro efficacy is seen (neuroblastoma cell lines; neuroblastoma cell lines, highest two concentrations tested, FIG. 2) | pIC50 (healthy fibroblasts (BJ)) | concentration of taurolidine in healthy volunteers [2] | sensitivity compared to healthy lymphocytes (leukemia cell lines) |
| --- | --- | --- | --- | --- | --- | --- | --- | --- | --- | --- | --- |
| NCCS(N)(=O)=O [Taurinamide, taurinamide] | 313 µg·h/mL |  |  |  |  |  |  |  |  |  |  |
| O=S1(=O)CCN(CN2CCS(=O)(=O)NC2)CN1 [taurolidine] |  | efficacy | measurable efficacy | not statistically different | Statistically significant decreases | more sensitive | 3.85 to 4.10 | above 40 microMolar | 3.70 | NO measurable concentration | more sensitive |

Reference: patent publication US11541061B2, “Neuroblastoma treatment with taurolidine hydrolysis products” (CorMedix Inc., priority 2016, dated 2023)
